For one data set, the system named is HSV-2 (G STRAIN). Briefly: In vitro activity of PMEA prodrugs against HSV-2 (G strain), plaque reduction. The format is cell-based. The following applies: for IC50: Human alphaherpesvirus 2, dose which gives a 50% reduction of plaque formation, read-out: ID50 (the source's name); for ID50: dose which gives a 50% reduction of plaque formation. From the text: PRODRUGS AGAINST HSV-2 (G STRAIN)
^a DOSE WHICH GIVES A 50% REDUCTION OF PLACQUE FORMATION

For data set [1], the system named is human immunodeficiency virus (HIV). The following applies: literature, cited from earlier work.
The test system of data set [2] is herpes simplex virus, type 2 (HSV-2). The conditions noted are these: literature; cited from earlier work.
In data set [3] the test system is herpes simplex virus, type 1 (HSV-1). The following applies: literature; cited from earlier work.
The test system of a further data set is B16 melanoma. The conditions noted are these: murine tumor model; cited from earlier work.
The subject of the next data set is herpes viruses. The conditions noted are these: cited from earlier work.
Another data set has as its system HSV 1. The following applies: in vivo, mice; more potent than acyclovir; cited from earlier work.
A further data set relates to P388 leukemia. The conditions noted are these: murine tumor model; cited from earlier work.
For data set [4], the system named is human cytomegalovirus (HCMV). The conditions noted are these: literature; cited from earlier work.
Data set [5] in a line: Toxicity in the in vitro HSV-2 test.
In data set [6] the test system is varicella zoster virus (VZV). The conditions noted are these: literature; cited from earlier work.
The next data set has as its system adenovirus. The conditions noted are these: literature; cited from earlier work.
In a further data set the test system is vaccinia virus. The following applies: literature; cited from earlier work.
The subject of data set [7] is herpes simplex virus type 1. The conditions noted are these: mice in vivo; including herpetic keratitis caused by a TK^- mutant; cited from earlier work.
The test system of data set [8] is suid herpesvirus type 1 (SHV-1, or pseudorabies virus or Aujeszky's disease virus). The following applies: literature; cited from earlier work.
In data set [9] the test system is simian herpesvirus platyrrhinae (HVP). The conditions noted are these: literature; cited from earlier work.
The subject of data set [10] is phocid herpesvirus type 1 (seal herpesvirus, SeHV). The following applies: literature; cited from earlier work.
Data set [11] deals with bovid herpesvirus type 1 (infectious bovine rhinotracheitis virus, BHV-1). The conditions noted are these: literature; cited from earlier work.
Data set [12] has as its system thymidine kinase-deficient (TK^-) mutants of herpes simplex. The conditions noted are these: literature; cited from earlier work.
The subject of data set [13] is herpes simplex virus type 1. The following applies: rabbits in vivo; including herpetic keratitis caused by a TK^- mutant; cited from earlier work.
Data set [14] has as its system murine sarcoma virus (MSV). The conditions noted are these: literature; cited from earlier work.
The test system of data set [15] is African swine fever (ASF) virus. The following applies: literature; cited from earlier work.
For data set [16], the system named is equid herpesviruse type 1 (equine abortion virus, EHV-1). The following applies: literature; cited from earlier work.
Data set [17] relates to Rauscher murine leukemia virus (R-MuLV). The following applies: mice; vs 3'-azido-3'-deoxythymidine (AZT); cited from earlier work.
Data set [18] concerns murine cytomegalovirus (MCMV). The following applies: cited from earlier work.
In data set [19] the test system is Rauscher murine leukemia virus (R-MuLV). The following applies: cited from earlier work.

SMILES strings stand for the structures. In brackets after ≈: the same amount, converted by molar mass. Entries after “also recorded” stand apart in the source; their conditions may differ. Structures can show the parent of a compound that is named as a salt. Where two headings read alike, the source gives them in different places. A value given as a limit tells only on which side of the number the result lay.

Regarding `Nc1ncnc2c1ncn2CCOCP(=O)(O)OCCCO` [Example 22, PMEA, 3-hydroxypropanyl ester, (sodium salt)], in the data set on HSV-2 (G STRAIN), the IC50 was 110 µg/mL. This compound also yielded a CC50 in the data set “in vitro” of over 166 µg/mL.

For `CC(C)C(=O)OCOP(=O)(COCCn1cnc2c(N)ncnc21)OCOC(=O)C(C)C` [Example 13, PMEA, di-(isobutyrloxymethyl ester)], in the data set on HSV-2 (G STRAIN), the IC50 is under 0.1 µg/mL. The compound further yielded a CC50 in “in vitro” of 100 µg/mL (≈ 211 µM).

Consider `CCC(=O)OCOP(=O)(COCCn1cnc2c(N)ncnc21)OCOC(=O)CC` [Example 12, PMEA, di-(propionyloxymethyl ester)], for which, in the data set with HSV-2 (G STRAIN), the IC50 is 0.17 µg/mL (≈ 0.382 µM). The CC50 in “in vitro” is 100 µg/mL (≈ 225 µM).

For `Nc1ncc2ncn(CCOCP(=O)(O)O)c2n1` [PMEMAP], in data set [1], the “activity against HIV” value is recorded as “active”.

Take `Nc1nc2c(ncn2CCOCP(=O)(O)O)c(=O)[nH]1` [PMEG]: in data set [2], the “activity against HSV-2” value is recorded as “active”. Further, in data set [3], the “activity against HSV-1” value is listed as “active”. For the same compound, the “activity against B16 melanoma” value in the data set on B16 melanoma is on record as “active”. The “in vitro potency against herpes viruses” value in the data set with herpes viruses is on record as “exceptionally potent”. Further, the “potency relative to acyclovir against HSV 1 infection” value in the data set with HSV 1 is given as over 50 fold. Moreover, in the data set on P388 leukemia, the “activity against intraperitoneal P388 leukemia” value is recorded as “active”.

As to `Nc1nc(N)c2ncn(C[C@@H](CO)OCP(=O)(O)O)c2n1` [(S)-HPMPDAP], in data set [2], the “activity against HSV-2” value is reported as “active”. In data set [3], the “activity against HSV-1” value was “active”.

Consider `Nc1ccn(C[C@@H](CO)OCP(=O)(O)O)c(=O)n1` [(S)-HPMPC], for which the “activity against HSV-2” value in data set [2] is given as “active”. In addition, the “activity against HSV-1” value in data set [3] is “active”. Further, in data set [4], the “activity against HCMV” value was “active”.

With `CC(C)(C)C(=O)OCOP(=O)(COCCn1cnc2c(N)ncnc21)OCOC(=O)C(C)(C)C` [Example 9, PMEA, di(pivaloyloxymethyl ester)], the IC50 in the data set with HSV-2 (G STRAIN) was found to be 0.28 µg/mL (≈ 0.558 µM). Besides, in “in vitro”, the CC50 was found to be 100 µg/mL (≈ 199 µM).

As for `Nc1nc(N)c2ncn(CCOCP(=O)(O)O)c2n1` [PMEDAP], the “activity against HSV-2” value in [2] is recorded as “active”. In addition, in data set [3], the “activity against HSV-1” value is recorded as “active”. The “activity against HIV” value in data set [1] is reported as “active”.

For the compound `CC(C)OP(=O)(COCCn1cnc2c(N)ncnc21)Oc1ccccc1` (centres unmarked) [Example 16, PMEA, (mono isopropyl, monophenyl) ester], in the data set with HSV-2 (G STRAIN), the ID50 was over 100 µg/mL. This compound also gave a CC50 in [5] of 100 µg/mL (≈ 256 µM).

Regarding `Nc1nc2c(ncn2C[C@@H](CO)OCP(=O)(O)O)c(=O)[nH]1` [(S)-HPMPG], in data set [2], the “activity against HSV-2” value was “active”. Besides, in data set [3], the “activity against HSV-1” value is reported as “active”.

Consider `CC(C)(C)C(=O)OCOP(=O)(O)COCCn1cnc2c(N)ncnc21` [Example 15, PMEA, mono pivaloyloxymethyl ester], for which the IC50 with HSV-2 (G STRAIN) stood at 8.1 µg/mL (≈ 20.9 µM). The CC50 in data set [5] is 100 µg/mL (≈ 258 µM).

Regarding `Nc1ncnc2c1ncn2C[C@H]1COP(=O)(O)CO1` [(S)-cyclic HPMPA], in data set [2], the “activity against HSV-2” value is on record as “active”. In [3], the “activity against HSV-1” value was “active”. In data set [6], the “activity against VZV” value was “active”. Besides, the activity against adenovirus result with adenovirus was “active”. Moreover, the “activity against vaccinia virus” value with vaccinia virus is “active”.

`Nc1ncnc2c1ncn2C[C@@H](CO)OCP(=O)(O)O` [(S)-HPMPA, (S)-9-((3-hydroxy-2-phosphonylmethoxy)propyl)adenine]: the “efficacy against local and systemic HSV-1 infections” value in data set [7] and in data set [13] was “effective” in each case. In [8], the “activity against SHV-1” value is “potent and selective activity”. For the same compound, in data set [2], the “activity against HSV-2” value was “potent and selective activity; also recorded: active”. For the same compound, the “activity against HSV-1” value in data set [3] is “potent and selective activity; also recorded: active”. In addition, in data set [6], the “activity against VZV” value is “potent and selective activity; also recorded: active”. For the same compound, in [4], the “activity against HCMV” value was “potent and selective activity”. The “activity against HVP” value in data set [9] was “potent and selective activity”. In addition, the “activity against SeHV” value in data set [10] was “potent and selective activity”. The “activity against BHV-1” value in [11] is “potent and selective activity”. For the same compound, the “activity against TK^- mutants of herpes simplex” value in data set [12] was “potent and selective activity”. The “activity against MSV” value in data set [14] was “potent and selective activity”. The “activity against intraperitoneal P388 leukemia” value in the data set with P388 leukemia is “active”. Further, the activity against adenovirus entry in the data set with adenovirus is “potent and selective activity; also recorded: active”. In data set [15], the “activity against ASF virus” value is “potent and selective activity”. Further, the “activity against vaccinia virus” value in the data set on vaccinia virus is “potent and selective activity; also recorded: active”. Also, the “activity against EHV-1” value in [16] was “potent and selective activity”.

`Nc1ncnc2c1ncn2CCOCP(=O)(Oc1ccccc1)Oc1ccccc1` [Example 35, PMEA, diphenyl ester]: in the data set on HSV-2 (G STRAIN), the ID50 came to 34 µg/mL (≈ 79.9 µM). Moreover, the CC50 in data set [5] was over 166 µg/mL.

For the compound `Nc1ncnc2c1ncn2CCOCP(=O)(O)O` [Example 1, 9-(2-Phosphonylmethoxy)ethyladenine], the “potency in vivo relative to AZT in the treatment of R-MuLV” value in data set [17] is reported as “more potent in vivo”. Moreover, the “antiviral effect in vivo against MCMV” value in [18] is given as “significant antiviral effect”. For the same compound, in data set [2], the “activity against HSV-2” value is “active”. Also, the “activity against HSV-1” value in data set [3] was “active”. The “activity against HCMV” value in data set [4] is given as “in vitro activity”. Besides, the “activity against HIV” value in data set [1] (listed as PMEA) is on record as “active; also recorded: good in vitro activity”. Further, the IC50 in the data set on HSV-2 (G STRAIN) was determined as 39 µg/mL (≈ 143 µM). Also, the “activity against intraperitoneal P388 leukemia” value in the data set on P388 leukemia is on record as “active”. For the same compound, the “in vitro activity against R-MuLV” value in data set [19] is given as “good in vitro activity”. Further, the CC50 in the data set “in vitro” was over 166 µg/mL.

In the case of `Nc1ncnc2c1ncn2CCOCP(=O)(O)Oc1ccccc1` [Example 34, PMEA, monophenyl ester (sodium salt)], in the data set with HSV-2 (G STRAIN), the ID50 came to 42 µg/mL. Besides, the CC50 in [5] was over 166 µg/mL.

The values above are taken from patent US5663159A, “Prodrugs of phosphonates” (Institute of Organic Chemistry and Biochemistry of the …, priority 1994, dated 1997).
